Experimental data reported in patent US11254670B2 (NUVATION BIO INC., priority 2019, dated 2022).

What was measured:
[1] = target: adenosine A1 (human) membrane (Homo sapiens (Human), UniProt P30542); test: A1 adenosine receptor radioligand binding assay ([3H] DPCPX); conditions: radioligand [3H] DPCPX 1 nM, compound 200 nM
Method: A second A1 adenosine receptor radioligand binding assay protocol was used. The protocol used adenosine A1 (human) membrane (PerkinElmer ES-010-M400UA) at a concentration of 2.5 μg/well/100 μl and the radioligand [3H] DPCPX (Cat No. PerkinElmer-NET974250UC) at a final concentration of 1 nM. Testing compounds were tested at a final concentration of 200 nM. CGS-15943, the reference compound, was tested in an 8-point 4-fold serial dilution, starting at a top concentration of 1 μM. 1 μl of compounds/high control/low control was transferred to the assay plate according to a plate map, followed by 100 μl of membrane stocks and 100 μl of radioligand, in assay buffer (25 mM HEPES, 5 mM MgCl2, 1 mM CaCl2, 100 mM NaCl, pH 7.4). The plate was sealed and incubated at RT for 1 hour. Unifilter-96 GF/C filter plates (Perkin Elmer Cat #6005174) were soaked with 50 μl of 0.3% PEI per well for at least 0.5 hour at room temperature. When the binding assays were completed, the reaction mixtures were filtered through GF/C plates using Perkin Elmer Filtermate Harvester, and each plate washed 4 times with cold wash buffer (25 mM HEPES, 5 mM MgCl2, 1 mM CaCl2, 100 mM NaCl, pH 7.4). The filter plates were dried for 1 hour at 50 degrees. After drying, the bottom of the filter plate wells was sealed, 50 μl of Perkin Elmer Microscint 20 cocktail was added, and the top of the filter plate was sealed. ^3H trapped on the filter was counted using Perkin Elmer MicroBeta2 Reader. The data were analyzed with GraphPad Prism 5 to obtain binding IC50 values for the reference compound. The “Inhibition [% Control]” was calculated using the equation: % Inh=(1−Background subtracted Assay value/Background subtracted HC value)*100, where HC is high control.

[2] = target: human recombinant adenosine A2A receptor (Homo sapiens (Human), UniProt P29274); test: cAMP assay (Assay 2), HEK-293 cells expressing A2A receptor; type: cell-based; conditions: HEK-293 cells expressing human recombinant adenosine A2A receptor
Method: (§1) The functional activity of compounds was tested using Assay 2, below, to detect the presence of cAMP. Assay 1 is an alternative assay for this purpose. Activation of G-protein coupled receptors (such as A2A) results in activation of adenylyl cyclase which converts ATP into cAMP which is used as a downstream signaling molecule. Therefore, molecules which act as GPCR (or specifically A2A receptor) antagonists cause a decrease in intracellular cAMP concentration.
(§2) Assay 2 (Table B2): This assay used HEK-293 cells expressing human recombinant adenosine A2A receptor (or, alternatively, A1 receptor) that were grown prior to the test in media without antibiotic. 100 nL of test articles at 100× of final concentration were transferred to assay plate by Echo. Cells were washed twice with 5 mL of PBS and 10 μL of cells were mixed with 5 mL PBS. After aspirating the PBS and adding 1.5 mL versine, cells were incubated at 37° C. for 2-5 min. After centrifugation, 4 mL of medium was added and adjusted cell density to 5,000 cells/well with Stimulation Buffer. 10 μL of cells were aliquoted to the assay plate, centrifuged at 1000 rpm for 1 minute, and incubated for 60 minutes at room temperature. 5 μL 4× Eu-cAMP tracer solution and 5 μL 4× Ulight™-anti-cAMP solution were added to assay plate, followed by centrifugation and 60-minute incubation at room temperature. Plates were read on EnVision.

[3] = target: adenosine A2a (human) membrane (Homo sapiens (Human), UniProt P29274); test: A2A adenosine receptor radioligand binding assay ([3H] CGS-21680); conditions: radioligand [3H] CGS-21680 6 nM
Method: A second A2A adenosine receptor radioligand binding assay protocol was used. The protocol used adenosine A2a (human) membrane (PerkinElmer RBHA2AM400UA) at a concentration of 5 μg/well/100 μl and the radioligand [3H] CGS-21680 (Cat No. PerkinElmer-NET1021250UC) at a final concentration of 6 nM. Testing compounds were diluted with DMSO to make 8-point 4-fold serial dilution, starting at 0.2 mM. CGS-15943 was the reference compound. 1 μl of compounds/high control/low control was transferred to the assay plate according to a plate map, followed by 100 μl of membrane stocks and 100 μl of radioligand, in assay buffer (50 mM Tris-HCl, 10 mM MgCl2, 1 mM EDTA, pH 7.4). The plate was sealed and incubated at RT for 2 hours. Unifilter-96 GF/C filter plates (Perkin Elmer Cat #6005174) were soaked with 50 μl of 0.3% PEI per well for at least 0.5 hour at room temperature. When the binding assays were completed, the reaction mixtures were filtered through GF/C plates using Perkin Elmer Filtermate Harvester, and each plate washed 4 times with cold wash buffer (50 mM Tris-HCl, 154 mM NaCl, pH 7.4). The filter plates were dried for 1 hour at 50 degrees. After drying, the bottom of the filter plate wells was sealed, 50 μl of Perkin Elmer Microscint 20 cocktail was added, and the top of the filter plate was sealed. ^3H trapped on the filter was counted using Perkin Elmer MicroBeta2 Reader. The data were analyzed with GraphPad Prism 5 to obtain binding IC50 values. The “Inhibition [% Control]” was calculated using the equation: % Inh=(1−Background subtracted Assay value/Background subtracted HC value)*100, where HC is high control.

[4] = target: human recombinant adenosine A1 receptor (Homo sapiens (Human), UniProt P30542); test: cAMP assay (Assay 2), HEK-293 cells expressing A1 receptor; type: cell-based
Method: as §1, §2

activated human PBMCs = test: Human T cell activation assay (TNF-α and IFN-γ ELISA); type: cell-based; conditions: activated human T cells in vitro, NECA 1 μM or 5 μM
Method: Human T Cell Activation Assay: Fresh human blood was diluted with the same volume of PBS and the buffy coat containing peripheral blood mononuclear cells (PBMCs) were prepared and resuspended in culture medium at a density of 2×10^6/mL. 2×10^5 PBMCs (in 100 μL) were plated to each well of a 96-well flat bottom plate. 25 μL of 8× final concentration of 10-fold serial diluted or single concentration compounds was added to indicated wells and incubated for 30 mins in 37° C./5% CO2. 25 μL of 8× final concentration of NECA (1 μM or 5 μM) was added to selected wells and incubated for 30 min in 37° C./5% CO2. Beads included in T cell activation/expansion kit (Miltenyi biotec Cat #130-091-441) at a bead-to-cell ratio of 1:6 in 50 μL were added to all wells with the final concentration of DMSO at 0.1% and final volume at 200 μL. 60 μL of supernatant post 24 hr and 48 hr incubation was collected for TNF-α and IFN-γ concentration evaluation using TNF-α ELISA ready-set-go kit (eBioscience, Cat #88-7346-77) and IFN-γ ELISA ready-set-go kit (eBioscience, Cat #88-7316-77), respectively.

Sequence of adenosine A1 (human) membrane (P30542 whole entry): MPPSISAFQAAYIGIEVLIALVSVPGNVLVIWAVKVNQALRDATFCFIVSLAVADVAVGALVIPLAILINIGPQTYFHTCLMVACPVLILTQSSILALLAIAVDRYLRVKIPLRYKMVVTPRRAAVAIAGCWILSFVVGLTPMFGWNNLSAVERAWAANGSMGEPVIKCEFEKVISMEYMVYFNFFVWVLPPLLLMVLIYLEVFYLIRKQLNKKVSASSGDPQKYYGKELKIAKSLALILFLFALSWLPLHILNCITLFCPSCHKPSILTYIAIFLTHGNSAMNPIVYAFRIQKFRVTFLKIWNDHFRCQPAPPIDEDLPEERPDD
Sequence of adenosine A2a (human) membrane (P29274 whole entry): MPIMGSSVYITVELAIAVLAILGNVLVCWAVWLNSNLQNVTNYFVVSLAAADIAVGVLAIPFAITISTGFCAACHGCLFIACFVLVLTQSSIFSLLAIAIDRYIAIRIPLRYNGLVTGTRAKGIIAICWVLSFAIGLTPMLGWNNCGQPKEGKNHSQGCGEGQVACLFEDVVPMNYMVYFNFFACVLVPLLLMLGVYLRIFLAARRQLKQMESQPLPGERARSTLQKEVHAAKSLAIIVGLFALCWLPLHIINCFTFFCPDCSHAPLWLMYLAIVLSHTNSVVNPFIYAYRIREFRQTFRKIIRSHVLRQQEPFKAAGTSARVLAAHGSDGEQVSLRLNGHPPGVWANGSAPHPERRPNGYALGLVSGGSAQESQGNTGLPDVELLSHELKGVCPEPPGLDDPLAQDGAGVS
Sequence of human recombinant adenosine A2A receptor (P29274 whole entry): as above
Sequence of human recombinant adenosine A1 receptor (P30542 whole entry): as the sequence (P30542 whole entry) above

Row | inhibition at 0.2 µM [1] [%] | IC50 [2] [nM] | IC50 [3] [nM] | IC50 [4] [nM] | Compound | reversal of NECA-mediated suppression of TNF-α secretion (activated human PBMCs; FIG. 1) | reversal of NECA-mediated suppression of IFN-γ secretion (activated human PBMCs; FIG. 2)
1 | 34 | > 10000 | – | – | Cc1cc(-c2cc3c(=O)cc[nH]c3nc2-c2ccccc2)cc(Cl)c1NS(C)(=O)=O [Compound 45, N-(2-chloro-6-methyl-4-(5-oxo-2-phenyl-5,8-dihydro-1,8-naphthyridin-3-yl)phenyl)methanesulfonamide] | – | –
2 | 79 | – | 17 | – | N#Cc1cccc(-c2nc3[nH]ccc(=O)c3cc2-c2ccc3[nH]cnc3c2)c1 [Compound 80, 3-(3-(1H-benzo[d]imidazol-5-yl)-5-oxo-5,8-dihydro-1,8-naphthyridin-2-yl)benzonitrile] | – | –
3 | 5 | – | 179 | – | Cc1c(C#N)cccc1-c1nc2[nH]ccc(=O)c2cc1-c1ccc2ncccc2c1 [Compound 55, 2-methyl-3-(5-oxo-3-(quinolin-6-yl)-5,8-dihydro-1,8-naphthyridin-2-yl)benzonitrile] | – | –
4 | 98 | 33.8 | 2.6 | 3.2 | CC(C)n1cc(-c2cc3c(=O)cc[nH]c3nc2-c2ccccc2)ccc1=O [Compound 1, 6-(1-isopropyl-6-oxo-1,6-dihydropyridin-3-yl)-7-phenyl-1,8-naphthyridin-4(1H)-one] | reversed NECA-mediated suppression | reversed NECA-mediated suppression
5 | 92 | 156 | – | – | Cn1cc(-c2cc3c(=O)cc[nH]c3nc2-c2ccccc2)ccc1=O [Compound 76] | – | –
6 | 7 | – | 2600 | – | Cc1cc(-c2cc3c(=O)cc[nH]c3nc2-c2cccc(C#N)c2C)cc(Cl)n1 [Compound 3, 3-(3-(2-chloro-6-methylpyridin-4-yl)-5-oxo-5,8-dihydro-1,8-naphthyridin-2-yl)-2-methylbenzonitrile] | – | –
7 | – | 11 | 3.5 | 5.8 | CC(C)n1cc(-c2cc3c(=O)cc[nH]c3nc2-c2ccccc2)cc(Cl)c1=O [Compound 7, 6-(5-chloro-1-isopropyl-6-oxo-1,6-dihydropyridin-3-yl)-7-phenyl-1,8-naphthyridin-4(1H)-one] | – | –
8 | 82 | 195 | – | – | Cn1cc(-c2cc3c(=O)cc[nH]c3nc2-c2ccccc2)cc(Cl)c1=O [Compound 75] | – | –
9 | 81 | – | 49 | – | N#Cc1cccc(-c2nc3[nH]ccc(=O)c3cc2-c2ccc3[nH]ncc3c2)c1 [Compound 78, 3-(3-(1H-indazol-5-yl)-5-oxo-5,8-dihydro-1,8-naphthyridin-2-yl)benzonitrile] | – | –
10 | 26 | – | 113 | – | Cc1cc(-c2cc3c(=O)cc[nH]c3nc2-c2cccc(C#N)c2)cc(Cl)n1 [Compound 6, 3-(3-(2-chloro-6-methylpyridin-4-yl)-5-oxo-5,8-dihydro-1,8-naphthyridin-2-yl)benzonitrile] | – | –
11 | 85 | – | 9.5 | – | N#Cc1cccc(-c2nc3[nH]ccc(=O)c3cc2-c2ccc3ncsc3c2)c1 [Compound 79, 3-(3-(benzo[d]thiazol-6-yl)-5-oxo-5,8-dihydro-1,8-naphthyridin-2-yl)benzonitrile] | – | –
12 | 61 | 213 | 5.4 | – | N#Cc1cccc(-c2nc3[nH]ccc(=O)c3cc2-c2ccc3ncccc3c2)c1 [Compound 77, 3-(5-oxo-3-(quinolin-6-yl)-5,8-dihydro-1,8-naphthyridin-2-yl)benzonitrile] | – | –
